Laboratory results from patent publication EP4772498A1, “COMPOUND ACTING AS ANDROGEN RECEPTOR ANTAGONIST” (China Pharmaceutical University, priority 2023, dated 2025).
Like-named read-outs stand apart in the source and are kept apart here. Marks after values point to notes of the source that are not given here.

Key:
in vitro = settings: human, blood
Experimental: (§1) 1 mM stock solutions of the test compounds were prepared in DMSO, and a 1 mM stock solution of the reference compound propantheline was prepared in acetonitrile.
(§2) 4 µL of test compound (or reference compound) stock solution was added to 796 µL of pre-incubated human blood (whole blood) at a final concentration of 5 µM. The final concentration of the solvent was 0.5%. At different time points (including 5 min, 15 min, 30 min, 60 min, and 120 min), a 50 µL aliquot of the whole blood containing the sample was added to a new tube and incubated in a 37 °C water bath with shaking at 60 rpm. The treatment was performed in duplicate. At designated time points, 300 µL of room-temperature quenching solution (a solution of acetonitrile containing internal standards (100 nM alprazolam, 500 nM labetalol, and 2 µM ketoprofen)) was added to the whole blood sample containing the sample to terminate the reaction. 50 µL of whole blood containing the sample was added to a new tube containing 300 µL of room-temperature quenching solution to prepare a sample at 0 min. All samples were vortexed for 5 min. The samples in the plate were centrifuged at 3220 g for 30 min at 4 °C to precipitate the proteins. 100 µL of the supernatant was transferred to a new 96-well plate containing 100 µL of water for LC-MS/MS analysis.
(§3) The peak area ratio was determined by using an extracted ion chromatogram. The proportion of remaining compound at each time point was calculated according to the following formula: Remaning proporion t min (%) = peak area ratio t min / peak area ratio 0 min × 100% [formula] • Peak area ratio t min: peak area ratio of reference compound to test compound at t min; • Peak area ratio 0 min: peak area ratio of reference compound to test compound at time zero.
(§4) The slope value was determined by linear regression on the curve of the natural logarithm of the remaining proportion of the test compound versus the incubation time.
(§5) Determination of in vitro half-life (in vitro t1/2) from the slope value: in vitro t1/2 = 0.693/k [formula] in the formula, k is the rate constant (k = -slope value)

[1] = Metabolic stability assay in liver microsomes; format: in vitro ADME; settings: pH 7.4, human liver microsome 0.5 mg/mL, 1 mM NADPH, compound 1 µM, 37 °C; for microsomal CLint at 1 µM: read-out: In vitro Clint; for half-life at 1 µM: read-out: In vitro T1/2
Experimental: The metabolic stability of compounds disclosed herein in liver microsomes was determined using the following method.
• 1. Liver microsome source: Human liver microsome (Corning, 452117) • 2. Na2HPO4 (Tianjin Guangfu Fine Chemical Research Institute, 20180130) • 3. KH2PO4 (Tianjin Guangfu Fine Chemical Research Institute, 20180920) • 4. MgCl2 (Tianjin Guangfu Fine Chemical Research Institute, 20191216) • 5. NADPH (Solarbio, 1216C022) • 6. Positive control compound verapamil (Sigma, MKBV4993V) • 7. AB Sciex Triple Quad 4000 liquid chromatography-mass spectrometry system
1. Preparation of 100 mM phosphate-buffered saline (PBS): 7.098 g Na2HPO4 was dissolved in 500 mL of purified water by sonication to give solution A. 3.400 g of KH2PO4 was dissolved in 250 mL of purified water by sonication to give solution B. Solution A was placed on a stirrer, and solution B was added slowly until the pH reached 7.4, so as to give a 100 mM PBS buffer. 2. Preparation of reaction system The reaction system was prepared according to the table below.
3. The reaction system was pre-incubated in a 37 °C water bath for 10 min. 40 µL of 10 mM NADPH solution (NADPH was dissolved in 100 mM phosphate-buffered saline) was added to the reaction system, with the final concentration of NADPH being 1 mM. A negative control was prepared by replacing the NADPH solution with 40 µL of phosphate-buffered saline. The negative control was used to exclude the effect of the chemical stability of the compound itself. 4. The reaction was initiated by adding 4 µL of 100 µM compound disclosed herein or positive control compound verapamil to the reaction system at a final concentration of 1 µM. 5. After 0.5 min, 15 min, 30 min, 45 min, and 60 min of mixing well by using a vortex oscillator, 50 µ L of the incubated sample was taken out, and glacial acetonitrile containing an internal standard of 4 folds was added to terminate the reaction. The sample was centrifuged at 3,220 g for 45 min. 90 µL of the supernatant was transferred to a feeding plate after the centrifugation was completed, and 90 µL ultrapure water was added. The mixture was well mixed for LC-MS/MS analysis.
All data were calculated by using Microsoft Excel software. The peak areas were determined by using an extracted ion chromatogram. The in vitro half-life (T1/2) of the test compound was determined by linear fitting of the natural logarithm of the elimination proportion of the test compound over time. In vitro half-life (T1/2) was calculated by the slope k: in vitro T1/2 = 0.693/k [formula]
The in vitro intrinsic clearance (in vitro CLint, unit: µL/min/mg protein) was calculated using the following formula: in vitro CLint = k × volume of incubation solution/enzyme protein content; [formula]

AR = AR antagonistic activity: AR / PSA ARE1 luciferase reporter gene assay in transfected LNCaP cells stimulated with 1 nM DHT; format: cell-based; settings: treatment concentration: 3.3 µM, 24 h, normalised to 0.1% DMSO and 30 µM enzalutamide
Experimental: LNCaP cells were plated in a 6-well plate (Corning, 3516) at 8 × 10^5 cells/well.
AR and PSA ARE1 reporter gene plasmids (Bio (Anhui) Co., Ltd.) and transfection reagents Lipo3000 and P3000 (Lipofectamine™ 3000) (a total of 2.5 µg of plasmids, i.e., 1.25 µg of each plasmid, were added to each well) were left to stand and incubated for 10 min, and then 250 µL of the above transfection reagents were added dropwise to each well containing cells and co-incubated with the cells for 24 h.
The cells were washed with PBS, and the medium was replaced with a phenol red-free RPMI-1640 medium containing 5% carbon adsorption serum (or 10% fetal bovine serum and 1% penicillin and streptomycin). The cells were re-plated onto a 96-well plate (Corning, 3603) according to the number of cells plated (2 × 10^4 cells/well).
After cell plating, the test compound (or DMSO or positive control) was added. After at least 30 min of incubation, DHT (dihydrotestosterone) was added to the culture system at a final concentration of 1 nM. The culture system was then incubated in a carbon dioxide incubator.
Test compound: 10 mM stock solution, with a final concentration of 3.3 µM or 6.7 µM. Negative control: 0.1% DMSO. Positive control: 30 µM enzalutamide.
After the test compound (or DMSO or positive control) and DHT were co-incubated for 24 h, the luciferase signal was detected using the Vazyme Bright-Lite substrate. The medium was added at 70 µL/well, and the plate was shaken for 2 min, followed by reading of the luciferase signal.
Assay robustness was confirmed using the DMSO and low concentration control data: Ave_H = Ave(DMSO) [formula] Ave_L = Ave (30μMenzalutamide) [formula] Inhibition rate (%) = (Ave_H−Sample)/(Ave_H−Ave_L) × 100% [formula] Ave_H: the measurement of the negative control (0.1% DMSO); Ave_L: the measurement of the positive control (30 µM enzalutamide); Sample: the measurement of the test compound; The corresponding activity test results for the test compounds were specified in Table 1. Table 1. Corresponding activity test results for compounds disclosed herein

C57BL/6 mice [2] = settings: mouse, in vivo
Description: (§6) Animal information: C57BL/6 mice (male, aged 4-6 weeks, about 18-20 g), purchased from Shanghai Lingchang Biotechnology Co., Ltd. The mice were bred in an SPF-level environment within independently ventilated cages.
(§7) Skin preparation: After 1-2 weeks of acclimation, the hairs in a 2 cm × 3 cm area of the back of the mice were shaved to confirm that the hairs of the mice were in the telogen phase (the skin was pink) and the skin was not damaged.
(§8) Treatment: On day 3 after shaving, the mice were grouped for treatment. […] The control group received the control solvent. 12 mice were in each group.
(§9) The mice were weighed on days 10, 13, 18, 21, 25, and 30, and the hair growth state was scored and photographed.
(§10) The scoring criteria are as follows: • 0: no growth, with pink skin in the shaved area; • 1: the skin in the shaved area was gray (an increase of less than 20%); • 2: the skin in the shaved area was black (more than 20% but less than 40%); • 3: the skin in the shaved area was black with a little hair growth (more than 40% but less than 60%); • 4: the skin in the shaved area was black with partial hair growth (more than 60% but less than 80%); • 5: basically complete hair growth (80%-100% growth) in the shaved area.

[3] = 5 µM
Experimental: as §1, §2, §3, §4, §5

C57BL/6 mice [4] = experiment: In vivo pharmacodynamic study 1: hair growth scoring in shaved telogen-phase mice, topical treatment; settings: for Score (mean±SD): hair growth score 0-5, topical twice daily, compound 001 2 wt%, compound 008 0.5 wt%
Description: as §6, §7, §8, §9, §10

Whole blood stability = settings: human
Experimental: as §1, §2, §3, §4, §5

C57BL/6 mice [5] = experiment: In vivo pharmacodynamic study 2: hair growth scoring in shaved telogen-phase mice, topical treatment; settings: for Score (mean±SD): hair growth score 0-5, 0.5 wt% topical twice daily
Description: Vehicle: propylene glycol/ethanol (30:70, v/v)
A 1 cm × 1 cm area in the center of the back skin was selected as the treatment area.
The control group received the control solvent. 12 mice were in each group.
The mice were weighed on days 9, 12, 15, 19, and 22, and the hair growth state was scored and photographed.

[6] = at the investigated doses (0.5 wt%, BID topical)

Structure (SMILES): CCOC(=O)C(C)(O)C(=O)Nc1cnc(C#N)c(SC)c1 (single isomer, unassigned) [Compound 016B]
- half-life at 5 µM (in vitro): 1.69 h
- microsomal CLint at 1 µM ([1]; microsomes): 88.3 µL/min/mg
- half-life at 1 µM ([1]; microsomes): 0.262 h
- AR antagonism (inhibition rate, %) (AR): 90.50^a %

Structure (SMILES): CCOC(=O)C(C)(O)C(=O)Nc1cnc(C#N)c(C(F)(F)F)c1 (stereo not shown) [Compound 001, Ethyl 3-[[6-cyano-5-(trifluoromethyl)-pyridin-3-yl]amino]-2-hydroxy-2-methyl-3-oxopropanoate]
- impact on the body weight of the mice (C57BL/6 mice [2]): no significant impact
- signs of erythema, dehiscence, desquamation, and the like on the skin (C57BL/6 mice [2]): no signs
- Human whole blood half-life T1/2 [3]: 2.9982 h
- Score (mean±SD) (C57BL/6 mice [4]; Day 0): 0
- Score (mean±SD) (C57BL/6 mice [4]; Day 10): 0.6±0.5
- Score (mean±SD) (C57BL/6 mice [4]; Day 13): 0.9±0.9
- Score (mean±SD) (C57BL/6 mice [4]; Day 18): 1.3±1.4
- Score (mean±SD) (C57BL/6 mice [4]; Day 21): 1.9±1.8
- Score (mean±SD) (C57BL/6 mice [4]; Day 25): 2.4±2.2
- Score (mean±SD) (C57BL/6 mice [4]; Day 30): 3.0±1.8
- effect on mouse hair growth (C57BL/6 mice [4]; compound 001 at 2%, compound 008 at 0.5%, BID topically at 20 µL/cm^2): significant promoting effect
- day of the treatment from which hair growth was significantly promoted (C57BL/6 mice [4]; vs. vehicle control, 001 P < 0.01, 008 P < 0.05): ≥ 10 days
- AR antagonism (inhibition rate, %) (AR): 86.6^a %

Structure (SMILES): CCOC(=O)[C@@](C)(O)C(=O)Nc1cnc(C#N)c(SC)c1 [Compound 016A, ethyl (2S)-3-[(6-cyano-5-methylthio-pyridin-3-yl)amino]-2-hydroxy-2-methyl-3-oxopropanoate]
- half-life at 5 µM (Whole blood stability): 2.2 h
- microsomal CLint at 1 µM ([1]; human liver microsomes): 91.8 µL/min/mg
- half-life at 1 µM ([1]; human liver microsomes): 0.252 h
- AR antagonism (inhibition rate, %) (AR): 99.98^a %
- effect on hair growth (C57BL/6 mice [5]; 0.5 wt%, BID topically at 20 µL/cm^2): significant promoting effect
- Score (mean±SD) (C57BL/6 mice [5]; Day 0): 0
- Score (mean±SD) (C57BL/6 mice [5]; Day 9): 0.1±0.3
- Score (mean±SD) (C57BL/6 mice [5]; Day 12): 0.1±0.3
- Score (mean±SD) (C57BL/6 mice [5]; Day 15): 0.5±0.8
- Score (mean±SD) (C57BL/6 mice [5]; Day 19): 1.7±1.5
- Score (mean±SD) (C57BL/6 mice [5]; Day 22): 2.9±1.6
- impact on the body weight of the mice (C57BL/6 mice [5]; [6]): no significant impact
- signs of erythema, dehiscence, desquamation, and the like on the skin (C57BL/6 mice [5]; [6]): no signs
- day of the treatment from which hair growth was significantly promoted (C57BL/6 mice [5]; vs. vehicle control, P < 0.0001): ≥ 19 days
